Where two headings read alike, the source gives them in different places.
What was measured:
DNA-PK = DNA-PK (Homo sapiens (Human), UniProt P78527); experiment: DNA-PK assay (biochemical), flashplate 33P-ATP kinase assay
Description: A) DNA-PK Assay (Biochemical)
The kinase assay was carried out in streptavidin-coated […] microtitre flashplates. […] The reaction was stopped using 50 μl/well of 200 mM EDTA. After incubation for a further 30 min at room temperature, the liquid was removed. Each well was washed three times with 100 μl of 0.9% saline solution. A nonspecific reaction (blank value) was determined using 10 μM of an innate kinase inhibitor. The radioactivity measurement was carried out using a TopCount. IC50 values were calculated in RS1.

[1] = target: DNA-PK phosphorylation at serine 2056 (Homo sapiens (Human), UniProt P78527); experiment: DNA-PK phosphorylation at serine 2056 (cellular), bleomycin-treated HCT116 cells, ELISA; assay type: cell-based; conditions: read-out: IC50 pDNA-PK
Description: HCT116 cells were cultivated at 37° C. and 10% CO2 in MEM alpha medium with 10% of foetal calf serum and 2 mM glutamine. The cells were detached from the base of the culture vessels with the aid of trypsin/EDTA, centrifuged off in centrifuge tubes, taken up in fresh medium, and the cell density was determined. 100,000 cells were sown in 1 ml of culture medium per cavity of a 24-well cell culture plate and cultivated overnight. Next day, 10 μM bleomycin (DNA intercalator and inductor of DNA double-strand breaks) and test substances in fresh culture medium were added to the cells, and these were cultivated for a further six hours. […] The 96-well ELISA plates were subsequently treated with a detection antibody (Abcam ab79444: total DNA-PK) and a streptavidin-HRP conjugate. The development of the enzymatic reaction was carried out with the aid of a chemiluminescent reagent, the chemiluminescence was measured with the aid of a Mithras LB940. The signals with the phospho-DNA-PK-specific antibody were standardised to the signal with the antibody against the total protein DNA-PKc. […] The DMSO control was used as blank.

Kv11.1 (hERG) = Kv11.1 (hERG) (Homo sapiens (Human), UniProt Q12809); experiment: Kv11.1 (hERG) ion channel activity (patch clamp assay), HEK293 cells transfected with hERG gene; conditions: patch clamp, HEK293 transfected with hERG gene
Chain of Kv11.1 (hERG) (Q12809 whole entry): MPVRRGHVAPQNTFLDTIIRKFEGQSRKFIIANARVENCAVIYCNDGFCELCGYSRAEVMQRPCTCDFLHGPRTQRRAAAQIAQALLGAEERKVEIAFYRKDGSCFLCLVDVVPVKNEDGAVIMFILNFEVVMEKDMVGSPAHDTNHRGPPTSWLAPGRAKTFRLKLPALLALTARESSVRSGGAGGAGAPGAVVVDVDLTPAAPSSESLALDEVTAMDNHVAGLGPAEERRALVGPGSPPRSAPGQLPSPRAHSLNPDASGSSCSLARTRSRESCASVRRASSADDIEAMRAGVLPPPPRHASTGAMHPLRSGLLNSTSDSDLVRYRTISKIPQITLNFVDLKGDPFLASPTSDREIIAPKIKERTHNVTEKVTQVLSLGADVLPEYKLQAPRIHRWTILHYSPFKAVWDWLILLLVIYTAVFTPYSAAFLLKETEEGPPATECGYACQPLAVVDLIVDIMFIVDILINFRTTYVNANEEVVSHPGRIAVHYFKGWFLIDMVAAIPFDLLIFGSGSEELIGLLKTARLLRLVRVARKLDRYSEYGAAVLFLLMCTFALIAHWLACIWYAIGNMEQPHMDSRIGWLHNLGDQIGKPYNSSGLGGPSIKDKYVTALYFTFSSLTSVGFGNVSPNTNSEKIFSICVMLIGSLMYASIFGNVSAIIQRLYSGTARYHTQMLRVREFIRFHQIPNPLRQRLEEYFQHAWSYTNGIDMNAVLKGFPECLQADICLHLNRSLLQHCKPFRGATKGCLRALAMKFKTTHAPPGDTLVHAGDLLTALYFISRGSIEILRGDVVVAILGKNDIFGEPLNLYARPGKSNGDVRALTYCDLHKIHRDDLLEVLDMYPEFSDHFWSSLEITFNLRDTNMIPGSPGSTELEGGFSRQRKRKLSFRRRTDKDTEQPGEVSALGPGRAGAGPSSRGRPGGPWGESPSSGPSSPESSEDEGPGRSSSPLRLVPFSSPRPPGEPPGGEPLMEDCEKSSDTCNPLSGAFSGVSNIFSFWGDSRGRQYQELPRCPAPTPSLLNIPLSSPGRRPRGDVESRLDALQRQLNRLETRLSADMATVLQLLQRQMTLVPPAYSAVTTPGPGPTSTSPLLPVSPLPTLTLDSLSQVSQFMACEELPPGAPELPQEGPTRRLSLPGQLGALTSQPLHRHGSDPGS

[2] = cellular, HCT116 cells, 10 μM bleomycin, six hours
[3] = cellular DNA-PK phosphorylation at serine 2056, HCT116

Q: With `OC(c1cccnn1)c1cc(-c2ncnc3cc(N4CCOCC4)ccc23)c(F)cc1Cl` (single isomer, unassigned) [Example 30, [2-Chloro-4-fluoro-5-(7-morpholin-4-yl-quinazolin-4-yl)phenyl]-pyridazin-3-ylmethanol] as the compound, how does the IC50 (DNA-PK; enzymatic, 5 μM ATP) read?
A: < 3 nM

Q: What about the IC50 [1, 2] of the same compound?
A: < 500 nM

Q: For `COc1ccc(C(O)c2cc(-c3ncnc4cc(N5CCOCC5)sc34)c(F)cc2Cl)nn1` (single isomer, unassigned) [Example 127, [2-Chloro-4-fluoro-5-(6-morpholin-4-ylthieno[3,2-d}-pyrimidin-4-yl)-phenyl]-(6-methoxy-pyridazin-3-yl)-methanol], which IC50 (DNA-PK; enzymatic, 5 μM ATP) is on record?
A: 3 to 7 nM

Q: What about the IC50 [1, 2] of the same compound?
A: 5000 to 10000 nM

Q: `COc1ccc(C(O)c2cc(-c3ncnc4cc(N5CCOCC5)ccc34)c(F)cc2F)nn1` (single isomer, unassigned) [Example 129, [2,4-Difluoro-5-(7-morpholin-4-yl-quinazolin-4-yl)-phenyl]-(6-methoxy-pyridazin-3-yl)-methanol] was tested. Which Ki (Kv11.1 (hERG); Ki [Kv1.11 hERG]) did it give?
A: 15000 to 25000 nM

Q: How did the Ki (Kv11.1 (hERG); read-out: Ki [Kv1.11 hERG]) turn out when `COc1ccc(C(O)c2cc(-c3ncnc4cc(N5CCOCC5)ccc34)c(F)cc2F)nn1` (single isomer, unassigned) [Example 130, [2,4-Difluoro-5-(7-morpholin-4-yl-quinazolin-4-yl)-phenyl]-(6-methoxy-pyridazin-3-yl)-methanol] was run?
A: > 25000 nM

Q: For `COc1nccnc1C(O)c1ccc(F)c(-c2ncnc3cc(N4CCOCC4)cc(F)c23)c1` (single isomer, unassigned) [Example 253, [4-Fluoro-3-(5-fluoro-7-morpholin-4-yl-quinazolin-4-yl)-phenyl]-(3-methoxy-pyrazin-2-yl)-methanol], which IC50 (DNA-PK; biochemical DNA-PK assay) is on record?
A: 7 to 30 nM

Q: And the IC50 [1, 3]?
A: 5000 to 10000 nM

Q: Which IC50 (DNA-PK; enzymatic, 5 μM ATP) does the source give for `Cc1nccnc1C(O)c1cc(-c2ncnc3cc(N4CCOCC4)ccc23)c(F)cc1F` (stereo not drawn) [Example 85] here?
A: < 3 nM

Q: What about the IC50 [1, 2] of the same compound?
A: 500 to 5000 nM

Q: `OC(c1ccc(F)c(-c2ncnc3cc(N4CCOCC4)sc23)c1)c1nccs1` (stereo not drawn) [Example 146, [4-fluoro-3-(6-morpholin-4-ylthieno[3,2-d]pyrimidin-4-yl)phenyl]thiazol-2-ylmethanol] was tested. Which IC50 ([1]; Table 5, HCT116 cells) did it give?
A: 500 to 5000 nM

Q: Which IC50 (DNA-PK; Table 5) does the source give for `CC(O)(c1cncc(-c2ncnc3cc(N4CCOCC4)ccc23)c1)c1nccs1` (stereo not drawn) [Example 151, 1-[5-(7-Morpholin-4-ylquinazolin-4-yl)-pyridin-3-yl]-1-thiazol-2-ylethanol] here?
A: > 30 nM

Q: For `CC(O)(c1cc(-c2ncnc3cc(N4CCOCC4)ccc23)ccn1)c1nccs1` (stereo not drawn) [Example 153, 1-[4-(7-Morpholin-4-ylquinazolin-4-yl)-pyridin-2-yl]-1-thiazol-2-ylethanol], which IC50 (DNA-PK; Table 5) is on record?
A: > 30 nM

Q: For `Cc1ccc(C(C)(O)c2nccs2)cc1-c1ncnc2cc(N3CCOCC3)ccc12` (stereo not drawn) [Example 155, 1-[4-methyl-3-(7-morpholin-4-yl-quinazolin-4-yl)-phenyl)-1-thiazol-2-ylethanol], which IC50 (DNA-PK; Table 5) is on record?
A: > 30 nM

Q: With `CC(O)(c1cc(-c2ncnc3cc(N4CCOCC4)ccc23)cs1)c1nccs1` (stereo not drawn) [Example 156, 1-[4-(7-Morpholin-4-ylquinazolin-4-yl)-thiophen-2-yl]-1-thiazol-2-ylethanol] as the compound, how does the IC50 (DNA-PK; Table 5) read?
A: > 30 nM

Q: `OC(c1ccc(-c2ncnc3cc(N4CCOCC4)ccc23)s1)c1nccs1` (stereo not drawn) [Example 160, [5-(7-Morpholin-4-ylquinazolin-4-yl)-thiophen-2-yl]-thiazol-2-yl-methanol] was tested. Which IC50 (DNA-PK; Table 5) did it give?
A: > 30 nM

Q: `CC(O)(c1nccs1)c1cccc(-c2ncnc3cc(N4CCOCC4)ccc23)c1F` (stereo not drawn) [Example 162, 1-[2-Fluoro-3-(7-morpholin-4-yl-quinazolin-4-yl)-phenyl]-1-thiazol-2-ylethanol] was tested. Which IC50 (DNA-PK; Table 5) did it give?
A: > 30 nM

Q: Which IC50 (DNA-PK; Table 5) does the source give for `OC(c1csc(-c2ncnc3cc(N4CCOCC4)ccc23)c1)c1nccs1` (stereo not drawn) [Example 164, [5-(7-Morpholin-4-ylquinazolin-4-yl)-thiophen-3-yl]-thiazol-2-yl-methanol] here?
A: > 30 nM

Q: Which IC50 (DNA-PK; Table 5) does the source give for `OC(c1cc(F)cc(-c2ncnc3cc(N4CCOCC4)ccc23)c1)c1nccs1` (stereo not drawn) [Example 169, [3-Fluoro-5-(7-morpholin-4-yl-quinazolin-4-yl)-phenyl]thiazol-2-yl-methanol] here?
A: 7 to 30 nM

Q: And the IC50 ([1]; Table 5, HCT116 cells)?
A: 10000 to 30000 nM

Q: Which results are given for `OC(c1nccs1)c1cc(-c2ncnc3cc(N4CCOCC4)ccc23)ccc1F` (stereo not drawn) [Example 170, [2-Fluoro-5-(7-morpholin-4-yl-quinazolin-4-yl)-phenyl]thiazol-2-yl-methanol]?
A: IC50 (DNA-PK; Table 5): 7 to 30 nM; IC50 ([1]; Table 5, HCT116 cells): 5000 to 10000 nM

Q: Which IC50 (DNA-PK; Table 5) does the source give for `OC(c1cccc(-c2ncnc3cc(N4CCOCC4)ccc23)c1)(c1nccs1)C(F)(F)F` (stereo not drawn) [Example 172, 2,2,2-Trifluoro-1-[3-(7-morpholin-4-yl-quinazolin-4-yl)-phenyl]-1-thiazol-2-ylethanol] here?
A: 7 to 30 nM

Q: What about the IC50 ([1]; Table 5, HCT116 cells) of the same compound?
A: 10000 to 30000 nM

Q: How did the IC50 (DNA-PK; Table 5) turn out when `c1nc(N2CCCCC2)c2scc(N3CCOCC3)c2n1` [Example 174, 7-Morpholin-4-yl-4-piperidin-1-yl-thieno[3,2-d}-pyrimidine] was run?
A: 7 to 30 nM

Q: What about the IC50 ([1]; Table 5, HCT116 cells) of the same compound?
A: 10000 to 30000 nM

Q: With `COC(c1ccc(F)c(-c2ncnc3cc(N4CCOCC4)ccc23)c1)c1nccs1` (stereo not drawn) [Example 175, 4-[2-Fluoro-5-(methoxy-thiazol-2-ylmethyl)phenyl]-7-morpholin-4-yl-quinazoline] as the compound, how does the IC50 (DNA-PK; Table 5) read?
A: > 30 nM

Q: Which IC50 (DNA-PK; Table 5) does the source give for `COC(c1ccc(F)c(-c2ncnc3cc(N4CCOCC4)ccc23)c1)c1nccs1` (stereo not drawn) [Example 176, 4-[2-Fluoro-5-(-methoxy-thiazol-2-ylmethyl)phenyl]-7-morpholin-4-yl-quinazoline] here?
A: 7 to 30 nM

Q: For `OC(c1cccc(-c2ncnc3cc(N4CCOCC4)sc23)c1)c1nccs1` (stereo not drawn) [Example 182, [3-(6-Morpholin-4-ylthieno[3,2-d}-pyrimidin-4-yl)-phenyl]thiazol-2-yl-methanol], which IC50 (DNA-PK; Table 5) is on record?
A: 7 to 30 nM

Q: And the IC50 ([1]; Table 5, HCT116 cells)?
A: 5000 to 10000 nM

Q: Which IC50 (DNA-PK; Table 5) does the source give for `OC(c1cncc(-c2ncnc3cc(N4CCOCC4)ccc23)c1)c1nccs1` (stereo not drawn) [Example 183, [5-(7-Morpholin-4-ylquinazolin-4-yl)-pyndin-3-yl]thiazol-2-ylmethanol] here?
A: 7 to 30 nM

Q: How did the IC50 (DNA-PK; Table 5) turn out when `OC(c1cncc(-c2ncnc3cc(N4CCOCC4)ccc23)c1)c1nccs1` (stereo not drawn) [Example 184, [5-(7-Morpholin-4-ylquinazolin-4-yl)-pyridin-3-yl]thiazol-2-ylmethanol] was run?
A: 7 to 30 nM

Q: With `OC(c1ccc(F)c(-c2ncnc3cc(N4CCOCC4)ccc23)c1)c1nccs1` (stereo not drawn) [Example 212, [4-Fluoro-3-(7-morpholin-4-yl-quinazolin-4-yl)-phenyl]thiazol-2-ylmethanol] as the compound, how does the IC50 (DNA-PK; enzymatic, 5 μM ATP) read?
A: < 3 nM

Q: And the IC50 [1, 2]?
A: 10000 to 30000 nM

Q: How did the IC50 (DNA-PK; enzymatic, 5 μM ATP) turn out when `OC(c1ccc(F)c(-c2ncnc3cc(N4CCOCC4)ccc23)c1)c1nccs1` (stereo not drawn) [Example 213, [4-Fluoro-3-(7-morpholin-4-yl-quinazolin-4-yl)-phenyl]thiazol-2-ylmethanol] was run?
A: < 3 nM

Q: What about the IC50 [1, 2] of the same compound?
A: 5000 to 10000 nM

Q: With `COc1nccnc1C(O)c1cc(-c2ncnc3cc(N4CCOCC4)cc(F)c23)c(F)cc1Cl` (stereo not drawn) [Example 250, [2-Chloro-4-fluoro-5-(5-fluoro-7-morpholin-4-yl-quinazolin-4-yl)-phenyl]-(3-methoxy-pyrazin-2-yl)-methanol] as the compound, how does the IC50 [1, 3] read?
A: < 500 nM

Q: How did the IC50 [1, 3] turn out when `COc1nccnc1C(O)c1cc(-c2ncnc3cc(N4CCOCC4)cc(F)c23)c(F)cc1Cl` (stereo not drawn) [Example 266, [2-Chloro-4-fluoro-5-(5-fluoro-7-morpholin-4-yl-quinazolin-4-yl)-phenyl]-(3-methoxy-pyrazin-2-yl)-methanol] was run?
A: < 500 nM

Q: What does the source list for `Cn1cnc2ncnc(C(O)c3cc(-c4ncnc5cc(N6CCOCC6)ccc45)c(F)cc3F)c21` (stereo not drawn) [Example 386, [2,4-Difluoro-5-(7-morpholin-4-yl-quinazolin-4-yl)-phenyl]-(7-methyl-7H-purin-6-yl)-methanol]?
A: IC50 (DNA-PK; biochemical DNA-PK assay): 3 to 7 nM; IC50 [1, 3]: 5000 to 10000 nM

Q: For `Cn1cnc2ncnc(C(O)c3cc(-c4ncnc5cc(N6CCOCC6)ccc45)c(F)cc3F)c21` (stereo not drawn) [Example 431, [2,4-Difluoro-5-(7-morpholin-4-yl-quinazolin-4-yl)-phenyl]-(7-methyl-7H-purin-6-yl)-methanol], which IC50 (DNA-PK; biochemical DNA-PK assay) is on record?
A: 7 to 30 nM

Q: What about the IC50 [1, 3] of the same compound?
A: 500 to 5000 nM

Q: For `OC(c1cc(-c2ncnc3cc(N4CCOCC4)ccc23)c(F)cc1F)c1ncnc2ccoc12` (stereo not drawn) [Example 445, [2,4-Difluoro-5-(7-morpholin-4-yl-quinazolin-4-yl)-phenyl]furo[3,2-d}-pyrimidin-4-yl-methanol], which IC50 (DNA-PK; biochemical DNA-PK assay) is on record?
A: 3 to 7 nM

Q: And the IC50 [1, 3]?
A: < 500 nM

Q: How did the IC50 (DNA-PK; biochemical DNA-PK assay) turn out when `OC(c1cc(-c2ncnc3cc(N4CCOCC4)ccc23)c(F)cc1F)c1ncnc2ccoc12` (stereo not drawn) [Example 446, [2,4-Difluoro-5-(7-morpholin-4-yl-quinazolin-4-yl)-phenyl]furo[3,2-d}-pyrimidin-4-yl-methanol] was run?
A: < 3 nM

Q: And the IC50 [1, 3]?
A: 500 to 5000 nM

Q: What does the source list for `OC(c1ccc(F)c(-c2ncnc3cc(N4CCOCC4)ccc23)c1)c1nccnc1I` (stereo not drawn) [Example 462, [4-Fluoro-3-(7-morpholin-4-yl-quinazolin-4-yl)-phenyl]-(3-iodo-pyrazin-2-yl)-methanol]?
A: IC50 (DNA-PK; biochemical DNA-PK assay): < 3 nM; IC50 [1, 3]: < 500 nM

Reference: patent US9732094B2, “Arylquinazolines” (Merck Patent GmbH, priority 2013, dated 2017)
